The text below walks through data of US20150299219A1, “BICYCLIC PYRAZOLONE COMPOUNDS AND METHODS OF USE” (Calitor Sciences, LLC, priority 2014, published 2015).

Common to all, as to assay type: biochemical
The target of one assay is T1, Axl (h) (Homo sapiens, UniProt P30530).
T1 construct: purchased Millipore UK Ltd
T1 sequence (P30530 26-894): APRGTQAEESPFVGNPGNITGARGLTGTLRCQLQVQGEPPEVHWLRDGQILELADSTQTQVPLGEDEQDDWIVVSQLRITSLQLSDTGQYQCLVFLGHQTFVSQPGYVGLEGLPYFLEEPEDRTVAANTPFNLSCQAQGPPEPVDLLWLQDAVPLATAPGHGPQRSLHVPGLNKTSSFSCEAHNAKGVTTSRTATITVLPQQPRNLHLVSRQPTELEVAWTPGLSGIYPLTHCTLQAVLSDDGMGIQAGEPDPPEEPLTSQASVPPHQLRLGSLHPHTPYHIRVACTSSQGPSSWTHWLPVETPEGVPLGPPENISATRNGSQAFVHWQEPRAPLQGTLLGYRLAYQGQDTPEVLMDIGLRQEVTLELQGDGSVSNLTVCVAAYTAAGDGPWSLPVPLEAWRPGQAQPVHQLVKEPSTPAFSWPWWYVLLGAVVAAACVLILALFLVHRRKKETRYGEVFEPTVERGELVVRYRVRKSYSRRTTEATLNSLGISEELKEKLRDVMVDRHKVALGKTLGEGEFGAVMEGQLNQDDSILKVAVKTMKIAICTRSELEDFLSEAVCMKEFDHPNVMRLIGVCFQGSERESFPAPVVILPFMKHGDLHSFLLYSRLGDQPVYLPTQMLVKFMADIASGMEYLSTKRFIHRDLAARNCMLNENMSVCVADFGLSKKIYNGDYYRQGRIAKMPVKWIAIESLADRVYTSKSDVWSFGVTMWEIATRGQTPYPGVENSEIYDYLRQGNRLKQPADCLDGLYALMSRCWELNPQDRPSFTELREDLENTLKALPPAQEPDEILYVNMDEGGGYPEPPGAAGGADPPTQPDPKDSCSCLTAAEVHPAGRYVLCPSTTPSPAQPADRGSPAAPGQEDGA
As to the kind of experiment: Axl (h) kinase assay. The method, then:
(§1) The above assay procedure can be used to determine the IC50 for inhibition and/or the inhibition constant, Ki. The IC50 is defined as the concentration of compound required to reduce the enzyme activity by 50% under the condition of the assay. The IC50 value is estimated by preparing a 10 point curve using a 1/2 log dilution series (for example, a typical curve may be prepared using the following compound concentrations: 10 μM, 3 μM, 1 μM, 0.3 μM, 0.1 μM, 0.03 μM, 0.01 μM, 0.003 μM, 0.001 μM and 0 μM).
Axl (h) is incubated with 8 mM MOPS pH 7.0, 0.2 mM EDTA, 250 μM KKSRGDYMTMQIG, 10 mM MgAcetate and [γ-^33P-ATP] (specific activity approx. 500 cpm/pmol, concentration as required). The reaction is initiated by the addition of the MgATP mix. After incubation for 40 minutes at room temperature, the reaction is stopped by the addition of 3% phosphoric acid solution. 10 μL of the reaction is then spotted onto a P30 filtermat and washed three times for 5 minutes in 75 mM phosphoric acid and once in methanol prior to drying and scintillation counting.
(§2) The kinase assays described herein were performed at Millipore UK Ltd, Dundee Technology Park, Dundee DD2 1SW, UK.

Another assay addresses T2, Mer (h) (Homo sapiens, UniProt Q12866).
T2 construct: purchased Millipore UK Ltd
T2 sequence (Q12866 21-999): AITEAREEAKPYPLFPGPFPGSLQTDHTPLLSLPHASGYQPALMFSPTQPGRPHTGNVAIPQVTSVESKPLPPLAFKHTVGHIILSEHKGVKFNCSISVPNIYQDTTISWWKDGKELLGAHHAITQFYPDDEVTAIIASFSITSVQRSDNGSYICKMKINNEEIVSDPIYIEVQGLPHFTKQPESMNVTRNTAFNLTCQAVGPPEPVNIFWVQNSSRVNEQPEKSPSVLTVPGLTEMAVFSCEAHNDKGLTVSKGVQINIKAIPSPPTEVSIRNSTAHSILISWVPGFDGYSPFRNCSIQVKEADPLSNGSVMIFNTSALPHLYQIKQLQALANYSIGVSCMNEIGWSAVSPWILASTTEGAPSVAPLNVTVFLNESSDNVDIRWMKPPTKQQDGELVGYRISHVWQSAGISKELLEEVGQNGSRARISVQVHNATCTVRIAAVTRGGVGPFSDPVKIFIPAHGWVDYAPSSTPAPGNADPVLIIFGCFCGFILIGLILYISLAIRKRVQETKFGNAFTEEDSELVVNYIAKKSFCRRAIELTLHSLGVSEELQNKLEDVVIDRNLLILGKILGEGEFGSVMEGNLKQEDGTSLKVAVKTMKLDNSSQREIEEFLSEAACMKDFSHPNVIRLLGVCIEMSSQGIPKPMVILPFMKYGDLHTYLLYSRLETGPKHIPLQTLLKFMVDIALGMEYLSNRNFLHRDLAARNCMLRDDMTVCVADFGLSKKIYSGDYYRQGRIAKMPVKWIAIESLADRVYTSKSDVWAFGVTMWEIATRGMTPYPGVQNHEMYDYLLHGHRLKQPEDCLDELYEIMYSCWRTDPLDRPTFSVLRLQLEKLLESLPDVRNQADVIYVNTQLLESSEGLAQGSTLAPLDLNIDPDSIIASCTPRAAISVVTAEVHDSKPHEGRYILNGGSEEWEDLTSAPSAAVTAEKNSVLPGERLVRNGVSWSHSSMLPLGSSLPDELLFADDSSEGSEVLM
As to the kind of experiment: Mer (h) kinase assay. The method, then: as §1
Mer (h) is incubated with 8 mM MOPS pH 7.0, 0.2 mM EDTA, 30 mM NaCl, 250 μM GGMEDIYFEFMGGKKK, 10 mM MgAcetate and [γ-^33P-ATP] (specific activity approx. 500 cpm/pmol, concentration as required). The reaction is initiated by the addition of the MgATP mix. After incubation for 40 minutes at room temperature, the reaction is stopped by the addition of 3% phosphoric acid solution. 10 μL of the reaction is then spotted onto a P30 filtermat and washed three times for 5 minutes in 75 mM phosphoric acid and once in methanol prior to drying and scintillation counting.
as §2

A further assay deals with T3, c-Met (h) (Homo sapiens, UniProt P08581).
T3 construct: purchased Millipore UK Ltd
T3 sequence (P08581 25-1390): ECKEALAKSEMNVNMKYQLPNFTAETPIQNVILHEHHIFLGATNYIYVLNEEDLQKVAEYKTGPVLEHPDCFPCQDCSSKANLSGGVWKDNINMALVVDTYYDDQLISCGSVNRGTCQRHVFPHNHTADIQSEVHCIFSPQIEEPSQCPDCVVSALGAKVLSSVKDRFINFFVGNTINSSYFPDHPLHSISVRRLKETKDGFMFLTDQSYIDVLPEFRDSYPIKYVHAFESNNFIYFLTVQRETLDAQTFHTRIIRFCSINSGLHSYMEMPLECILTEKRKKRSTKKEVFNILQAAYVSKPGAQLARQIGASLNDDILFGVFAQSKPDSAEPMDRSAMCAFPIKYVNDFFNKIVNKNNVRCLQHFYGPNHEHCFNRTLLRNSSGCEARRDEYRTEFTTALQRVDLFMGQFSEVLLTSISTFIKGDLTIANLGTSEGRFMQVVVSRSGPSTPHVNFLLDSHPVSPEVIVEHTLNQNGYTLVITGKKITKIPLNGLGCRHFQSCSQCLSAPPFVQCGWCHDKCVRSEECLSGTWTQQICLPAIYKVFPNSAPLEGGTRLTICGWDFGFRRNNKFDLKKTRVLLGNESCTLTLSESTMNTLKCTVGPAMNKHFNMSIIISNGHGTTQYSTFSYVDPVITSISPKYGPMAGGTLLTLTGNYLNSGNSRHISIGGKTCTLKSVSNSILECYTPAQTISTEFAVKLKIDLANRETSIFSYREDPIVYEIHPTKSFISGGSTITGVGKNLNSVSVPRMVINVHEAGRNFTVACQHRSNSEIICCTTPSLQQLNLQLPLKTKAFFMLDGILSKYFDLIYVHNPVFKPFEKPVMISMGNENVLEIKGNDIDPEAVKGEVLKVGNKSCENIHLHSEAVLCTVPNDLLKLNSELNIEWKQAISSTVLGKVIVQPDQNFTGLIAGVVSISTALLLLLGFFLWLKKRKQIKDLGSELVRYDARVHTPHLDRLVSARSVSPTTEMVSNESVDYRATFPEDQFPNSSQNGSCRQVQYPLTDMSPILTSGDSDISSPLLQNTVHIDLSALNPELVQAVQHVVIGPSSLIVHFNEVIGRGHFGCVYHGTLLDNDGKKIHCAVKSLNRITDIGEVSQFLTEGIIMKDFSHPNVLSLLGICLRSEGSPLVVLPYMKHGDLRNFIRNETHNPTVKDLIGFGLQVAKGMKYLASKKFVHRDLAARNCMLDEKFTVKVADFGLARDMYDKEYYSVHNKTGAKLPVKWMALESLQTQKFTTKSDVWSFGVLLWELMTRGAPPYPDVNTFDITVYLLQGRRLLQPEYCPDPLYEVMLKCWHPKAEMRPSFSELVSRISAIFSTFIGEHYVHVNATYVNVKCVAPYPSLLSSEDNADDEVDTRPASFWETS
The assay is described as follows: c-Met (h) kinase assay. The method, then:
Kinase assays can be performed by measurement of incorporation of γ-^33P ATP into immobilized myelin basic protein (MBP). High binding white 384 well plates (Greiner) are coated with MBP (Sigma #M-1891) by incubation of 60 μL/well of 20 μg/mL MBP in Tris-buffered saline (TBS; 50 mM Tris pH 8.0, 138 mM NaCl, 2.7 mM KCl) for 24 h at 4° C. Plates are washed 3× with 100 μL TBS. Kinase reactions are carried out in a total volume of 34 μL in kinase buffer (5 mM Hepes pH 7.6, 15 mM NaCl, 0.01% bovine gamma globulin (Sigma #I-5506), 10 mM MgCl2, 1 mM DTT, 0.02% TritonX-100). Compound dilutions are performed in DMSO and added to assay wells to a final DMSO concentration of 1%. Each data point is measured in duplicate, and at least two duplicate assays are performed for each individual compound determination. Enzyme is added to final concentrations of 10 nM or 20 nM, for example. A mixture of unlabeled ATP and γ-^33P ATP is added to start the reaction (2×10^6 cpm of γ-^33P ATP per well (3000 Ci/mmole) and 10 μM unlabeled ATP, typically. The reactions are carried out for 1 h at room temperature with shaking. Plates are washed 7× with TBS, followed by the addition of 50 μL/well scintillation fluid (Wallac). Plates are read using a Wallac Trilux counter. This is only one format of such assays; various other formats are possible, as known to one skilled in the art.
as §1
Met (h) is incubated with 8 mM MOPS pH 7.0, 0.2 mM EDTA, 250 μM KKKSPGEYVNIEFG, 10 mM MgAcetate and [γ-^33P-ATP] (specific activity approx. 500 cpm/pmol, concentration as required). The reaction is initiated by the addition of the MgATP mix. After incubation for 40 minutes at room temperature, the reaction is stopped by the addition of 3% phosphoric acid solution. 10 μL of the reaction is then spotted onto a P30 filtermat and washed three times for 5 minutes in 75 mM phosphoric acid and once in methanol prior to drying and scintillation counting.
as §2

Broadly, the IC50 is the midpoint of a concentration-inhibition curve.

As for `CC(=O)Nc1cc(Oc2ccc(NC(=O)c3c4n(n(-c5ccccc5)c3=O)CCC4)cc2F)ccn1` [Ex. 6, N-(4-((2-acetamidopyridin-4-yl)oxy)-3-fluorophenyl)-2-oxo-1-phenyl-2,4,5,6-tetrahydro-1H-pyrrolo[1,2-b]pyrazole-3-carboxamide], the IC50 on Axl (h) amounted to 0.036 µM; against Mer (h) it was 0.033 µM; at c-Met (h), 0.057 µM.

`O=C(Nc1ccc(Oc2ccnc(NC(=O)C3CC3)c2)c(F)c1)c1c2n(n(-c3ccccc3)c1=O)CCOC2` [Ex. 17, N-(4-((2-(cyclopropanecarboxamido)pyridin-4-yl)oxy)-3-fluorophenyl)-2-oxo-1-phenyl-2,4,6,7-tetrahydro-1H-pyrazolo[5,1-c][1,4]oxazine-3-carboxamide]: the figures for the half-maximal inhibitory concentration (IC50) on Axl (h) and on c-Met (h) were 0.005 µM and 0.008 µM, respectively.

Take `Nc1nccc(Oc2ccc(NC(=O)c3c4n(n(-c5ccccc5)c3=O)CCCC4)cc2F)c1Cl` [Ex. 23, N-(4-((2-amino-3-chloropyridin-4-yl)oxy)-3-fluorophenyl)-2-oxo-1-phenyl-1,2,4,5,6,7-hexahydropyrazolo[1,5-a]pyridine-3-carboxamide]: the results for the IC50 on Axl (h), against Mer (h) and on c-Met (h) were 0.01 µM, 0.014 µM and 0.03 µM, respectively.

`CC(=O)Nc1cc(Oc2ccc(NC(=O)c3c4n(n(-c5ccccc5)c3=O)CCCC4)nc2)ccn1` [Ex. 9, N-(5-((2-acetamidopyridin-4-yl)oxy)pyridin-2-yl)-2-oxo-1-phenyl-1,2,4,5,6,7-hexahydropyrazolo[1,5-a]pyridine-3-carboxamide]: the IC50 at Axl (h) was 0.014 µM; against Mer (h) it was 0.012 µM; against c-Met (h), 0.027 µM.

For the compound `O=C(Nc1ccc(Oc2ccnc(NC(=O)C3CC3)c2)cn1)c1c2n(n(-c3ccccc3)c1=O)CCCC2` [Ex. 8, N-(5-((2-(cyclopropanecarboxamido)pyridin-4-yl)oxy)pyridin-2-yl)-2-oxo-1-phenyl-1,2,4,5,6,7-hexahydropyrazolo[1,5-a]pyridine-3-carboxamide], the IC50 was determined as 0.007 µM against Axl (h), 0.003 µM on Mer (h) and 0.005 µM against c-Met (h).

Regarding `Nc1nccc(Oc2ccc(NC(=O)c3c4n(n(-c5ccccc5)c3=O)CCCC4)cc2)c1Cl` [Ex. 22, N-(4-((2-amino-3-chloropyridin-4-yl)oxy)phenyl)-2-oxo-1-phenyl-1,2,4,5,6,7-hexahydropyrazolo[1,5-a]pyridine-3-carboxamide], the half-inhibitory concentration (IC50) was 0.016 µM against Axl (h) and 0.054 µM on c-Met (h).

Turning to `CC(=O)Nc1cc(Oc2ccc(NC(=O)c3c4n(n(-c5ccccc5)c3=O)CCOC4)cc2)ccn1` [Ex. 20, N-(4-((2-acetamidopyridin-4-yl)oxy)phenyl)-2-oxo-1-phenyl-2,4,6,7-tetrahydro-1H-pyrazolo[5,1-c][1,4]oxazine-3-carboxamide], the 50% inhibitory concentration (IC50) at Axl (h) came to 0.049 µM; at Mer (h), 0.044 µM.

Take `Nc1nccc(Oc2ccc(NC(=O)c3c4n(n(-c5ccccc5)c3=O)CCCC4)nc2)c1Cl` [Ex. 21, N-(5-((2-amino-3-chloropyridin-4-yl)oxy)pyridin-2-yl)-2-oxo-1-phenyl-1,2,4,5,6,7-hexahydropyrazolo[1,5-a]pyridine-3-carboxamide]: the half-maximal inhibitory concentration (IC50) was determined as 0.009 µM on Axl (h) and 0.014 µM against c-Met (h).

For the compound `O=C(Nc1ccc(Oc2ccnc(NC(=O)C3CC3)c2)cn1)c1c2n(n(-c3ccccc3)c1=O)CCOC2` [Ex. 11, N-(5-((2-(cyclopropanecarboxamido)pyridin-4-yl)oxy)pyridin-2-yl)-2-oxo-1-phenyl-2,4,6,7-tetrahydro-1H-pyrazolo[5,1-c][1,4]oxazine-3-carboxamide], the IC50 is 0.005 µM against Axl (h), 0.006 µM on Mer (h) and 0.012 µM against c-Met (h).

For the compound `O=C(Nc1ccc(Oc2ccnc(NC(=O)C3CC3)c2)c(F)c1)c1c2n(n(-c3ccccc3)c1=O)CCC2` [Ex. 5, N-(4-((2-(cyclopropanecarboxamido)pyridin-4-yl)oxy)-3-fluorophenyl)-2-oxo-1-phenyl-2,4,5,6-tetrahydro-1H-pyrrolo[1,2-b]pyrazole-3-carboxamide], the figures for the IC50 against Axl (h), against Mer (h) and on c-Met (h) were 0.019 µM, 0.004 µM and 0.015 µM, respectively.
